Legend:
hSAECs [1] = test: TGFβ-induced EMT gene expression in hSAECs by Q-RT-PCR; type: cell-based, human
Experimental: (§1) hSAECs culture and induction of the EMT transformation. An immortalized human small airway epithelial cell (hSAEC) line established by infecting primary hSAECs with human telomerase (hTERT) and cyclin-dependent kinase (CDK)-4 retrovirus constructs was obtained from John Minna, UTSW (Ramirez et al., 2004, Cancer. Res. 64:9027-34). The immortalized hSAECs were grown in SAGM small airway epithelial cell growth medium (Lonza, Walkersville, MD) in a humidified 5% CO2 atmosphere. For induction of the EMT, hSAECs were TGFIβ-stimulated for 15 d (10 ng/ml, PeproTech, Rocky Hill, NJ). The small-molecule IKK inhibitor BMS345541 was purchased from Sigma Aldrich and used at 10 μM (Burke et al., 2003, J. Biol. Chem. 278:1450-56).
(§2) Quantitative real-time reverse transcription-PCR (Q-RT-PCR). Total RNA was extracted using acid guanidinium phenol extraction (Tri Reagent; Sigma). For gene expression analyses, 1 μg of RNA was reverse-transcribed using SuperScript III in a 20-μl reaction mixture. The rest of the procedures were as described previously (Brasier et al., 2011, J. Virol. 85:11752-69). The forward and reverse gene-specific Q-RT-PCR primers are listed in Table 1; relative changes in gene expression were quantified using the ΔΔCT method.

[2] = tested on: 5′ NFκB site of SNAI1, ZEB1, IL-6, and VIM promoters; test: XChIP / Q-gPCR recruitment of transcriptional elongation complex to EMT gene promoters in hSAECs; type: cell-based, human
Experimental: Dual cross-link chromatin immunoprecipitation (XChIP). […] Protein-protein cross-linking was first performed with disuccinimidyl glutarate (2mM, Pierce), followed by protein-DNA cross-linking with formaldehyde. […] Immunoprecipitates were collected with 40 μL protein A magnetic beads (Dynal Inc.), washed, and eluted in 250 μL elution buffer for 15 min at room temperature. Samples were de-cross-linked in 0.2 M NaCl at 65 ° C. for 2 h. The precipitated DNA was phenol/chloroform-extracted, precipitated with 100% ethanol, and dried.
Quantitative real time genomic PCR (Q-gPCR). Gene enrichment in XChIP was determined by Q-gPCR using region-specific PCR primers (Table 2). Standard curves were generated using a dilution series of genomic DNA (from 1 ng to 100 ng) for each primer pair. The fold change of DNA in each immunoprecipitate was determined by normalizing the absolute amount to the input DNA reference and calculating the fold change relative to that amount in unstimulated cells.

[3] = cited from earlier work
hSAECs [4] = test: TGFβ-induced type II EMT in hSAECs, confocal immunofluorescence microscopy; type: cell-based, human
Experimental: as §1
Immunostaining and Confocal Immunofluorescence Microscopy. hSAECs were incubated±TGFβ (10 ng/mL) for 15 days, re-plated on glass cover slips pretreated with rat tail collagen (Roche Applied Sciences), and fixed with 4% paraformaldehyde in PBS. Afterwards, the fixed cells were stained with Alexa Fluor® 568 phalloidin (Life Technologies) for cytoplasmic distribution of F-actin and also counterstained with 4′, 6-diamidino-2-phenylindole (DAPI) for nuclear staining. The cells were visualized with a Nikon fluorescence confocal microscope at a magnification of 63×.
For immunofluorescence staining, hSAECs were plated on rat tail collagen-treated cover glasses and stimulated for the indicated times. The cells were fixed with 4% paraformaldehyde in PBS and incubated with 0.1 m ammonium chloride for 10 min. Cells were permeabilized with 0.5% Triton-100, followed by incubation in blocking buffer (5% goat serum, 0.1% IGEPAL CA-630, 0.05% NaN3, and 1% BSA) and incubated with anti-SNAIL1, anti-E-Cadherin, and anti-vimentin antibodies (Abs; Abcam, Santa Cruz, Calif.) incubation buffer (0.1% IGEPAL CA-630, 0.05% NaN3, and 2% BSA) overnight at 4 ° C. After washing, cells were stained with Alexa Fluor 488-conjugated goat anti-rabbit IgG (Life Technologies) in incubation buffer for 1 h, then visualized with a Nikon fluorescence confocal microscope, magnification 63×.

C57BL6/J mice [5] = test: TGFβ-induced pulmonary fibrosis in mice, histology and Ashcroft scoring; type: in vivo
Experimental: (§3) TGFβ-induced pulmonary fibrosis in mice. Male C57BL6/J mice aged 15 weeks were purchased from The Jackson Laboratory (Bar Harbor, Me.) and housed under pathogen-free conditions with food and water ad libitum. Mice were given multiple challenges with 1 μg/mouse of TGFβ every other day for a total of 15 TGFβ treatments. Meanwhile, mice were pre-treated with or without JQ1 (50 mg/kg body weight, i.p.) before TGFβ administration. Ten days after the last TGFβ treatment, bronchoalveolar lavages were obtained for quantifying innate immune cells and measuring cytokine and chemokine secretion; the mice were sacrificed and lung tissues taken for RNA extraction and fixed for histological examination. Whole lungs were inflated under 25 cm H2O pressure with 10% (v/v) neutral buffered formalin through the tracheal cannula and immersed in formalin for at least 24 hours. After being processed into paraffin blocks, the lungs were cut into 5-μm sections and stained either with Masson Trichrome or H&E to assess fibrotic changes in the lungs.
Assessment of levels of pulmonary fibrosis. Pulmonary fibrosis was graded using the Ashcroft scoring method as described (Hubner et al., 2008, Biotechniques. 44:507). In brief, to determine the fibrosis histopathology score for the lung of each mouse, the entire left and right longitudinal lung sections were scored separately (score range, 0 to 9) at ×100 magnification, and the scores were combined (total score range, 0 to 18). […] were intermediate grades assigned on the basis of the predominant histology changes if features described for two distinct grades (as described) were present in the section, to account for the progressive nature of the fibrotic lesion.

C57BL6/J mice [6] = test: TGFβ-induced pulmonary fibrosis in mice, lung Q-RT-PCR of fibrotic program; type: in vivo; conditions: JQ1 i.p., repetitive TGFβ stimulation
Experimental: as §2
as §3, with “After being processed into paraffin blocks, the lungs were cut into 5-μm sections and stained either with Masson Trichrome or H&E to assess fibrotic changes in the lungs.” left out

Brd4 [7] = target: T1, Brd4 (Homo sapiens, UniProt O60885); conditions: cited from earlier work
GFP-Brd4 = conditions: cited from earlier work
Brd4 [8] = target: T1, Brd4; conditions: chronic treatment; cited from earlier work
[9] = ± BMS-345541 10 μM, TGFβ 0 or 15 d
[10] = JQ1 10 μM, TGFβ 10 ng/mL 15 d, hSAECs
[11] = JQ1 10 μM, TGFβ 10 ng/mL, 15 d time course
[12] = JQ1 i.p. (100 mg/kg in FIG. 11 legend, 50 mg/kg in methods), repetitive intranasal TGFβ 1 μg/mouse

## Cc1ccc2nc(NCCN)c3ncc(C)n3c2c1 [BMS-345541]
hSAECs [1]; IKK kinase inhibitor BMS-345541, hSAECs
  TGFβ-induced enhanced mesenchymal gene expression: inhibited
[2]; [9]
  BRD4 recruitment to EMT gene promoters (SNAI1, ZEB1, IL-6, VIM): inhibited
  CDK9 recruitment to EMT gene promoters (SNAI1, ZEB1, IL-6, VIM): inhibited
  RelA recruitment to EMT gene promoters (SNAI1, ZEB1, IL-6, VIM): inhibited
  phospho-Ser 2 CTD RNA Pol II recruitment to EMT gene promoters (SNAI1, ZEB1, IL-6, VIM): inhibited

## CCC(=O)O[C@]1(C(=O)SCF)[C@H](C)C[C@H]2[C@@H]3C[C@H](F)C4=CC(=O)C=C[C@]4(C)[C@@]3(F)[C@@H](O)C[C@@]21C [Fluticasone propionate]
[3]; 95% ethanol
  solubility in 95% ethanol: slightly soluble
[3]; dimethyl sulfoxide
  solubility in dimethyl sulfoxide: freely soluble
[3]; dimethylformamide
  solubility in dimethylformamide: freely soluble
[3]; methanol
  solubility in methanol: slightly soluble
[3]; water
  solubility in water: practically insoluble

## Cc1sc2c(c1C)C(c1ccc(Cl)cc1)=NC(CC(=O)OC(C)(C)C)c1nnc(C)n1-2 (centres unmarked) [JQ1]
hSAECs [4]; JQ1 10 μM ± TGFβ 10 ng/mL 15 days, FIG. 9A
  the EMT (Type II EMT): blocks
hSAECs [4]; [10]
  TGFβ-induced acquisition of elongated shape: blocked
  TGFβ-induced stress fiber formation: blocked
  TGFβ-induced upregulation and cytosolic redistribution of SNAI1: blocked
  TGFβ-induced upregulation and cytosolic redistribution of VIM: blocked
  expression and cellular distribution of CDH1: maintained
hSAECs [1]; BRD4 inhibitor JQ1, hSAECs
  TGFβ-induced enhanced mesenchymal gene expression: significantly inhibited
hSAECs [1]; JQ1 10 μM ± TGFβ 10 ng/mL 15 d, FIG. 9B
  TGFβ-induced EMT gene expression in hSAECs: blocks
hSAECs [1]; JQ1 10 μM, TGFβ 10 ng/mL, 15 d, not to levels seen in normal hSAECs
  CDH1 expression (mRNA): partially maintained
hSAECs [1]; [11]
  TGFβ-induced expression of FN1 mRNA: significantly blocked
  TGFβ-induced expression of IL-6 mRNA: significantly blocked
  TGFβ-induced expression of SNAI1 mRNA: significantly blocked
  TGFβ-induced expression of VIM mRNA: significantly blocked
  TGFβ-induced expression of ZEB1 mRNA: significantly blocked
[2]; ± JQ1, TGFβ 0 or 15 days
  CDK9 recruitment to SNAI1: significantly disrupted
  RelA recruitment to SNAI1: significantly disrupted
  TGFβ-induced recruitment of BRD4 to the 5′NFκB site of SNAI1: significantly attenuated
  phospho-Ser 2 CTD RNA Pol II recruitment to SNAI1: significantly disrupted
C57BL6/J mice [5]; [12]
  TGFβ-induced airway fibrosis: effectively blocked
  lung histology (Masson Trichrome): histologically normal
C57BL6/J mice [5]; JQ1 mice with chronic TGFβ treatment vs chronic TGFβ alone (score 8), total score range 0 to 18
  combined Ashcroft score: significantly lower
C57BL6/J mice [6]
  TGFβ-induced pulmonary fibrotic program (mSNAI1, mFN-1, mαSMA, mCol1A1, mIL-6 mRNA in lung): significantly inhibited
Brd4 [7]
  recruitment and binding of Brd4 to TNFα and E-selectin promoter elements: inhibits
GFP-Brd4
  recovery time in FRAP assays using GFP-Brd4: accelerates
Brd4 [8]
  atherogenic responses and atherosclerosis: attenuates

Source: US10292986B2, “Methods for treating epithelian mesenchymal transition related diseases” (THE BOARD OF REGENTS OF THE UNIVERSITY OF TEXAS SYSTEM, priority 2015, dated 2019)
